Reference: ChEMBL document CHEMBL4014292, “Novel 11-norbetaenone isolated from an entomopathogenic fungus Lecanicillium antillanum” (Bioorg Med Chem Lett, 2017)
Values after ≈ are worked out from the molar mass of the structure shown. Active and inactive are the calls of the source. The calls are words filed in the database; no cut-off is given here.

Tests used:
HepG2 = assay: Antiproliferative activity against human HepG2 cells at 20 ug/mL after 72 hrs by MTT assay; type: functional, cell-based
A549 = assay: Antiproliferative activity against human A549 cells at 20 ug/mL after 72 hrs by MTT assay; type: functional, cell-based
Staphylococcus aureus = assay: Antimicrobial activity against Methicillin-resistant Staphylococcus aureus ATCC 33592 at 2 mg/ml after 24 hrs by agar well-diffusion method; type: functional
MDA-MB-231 = assay: Antiproliferative activity against human MDA-MB-231 cells at 20 ug/mL after 72 hrs by MTT assay; type: functional, cell-based
[1] = (§1) Antiangiogenic activity against human CD34-positive EPC assessed as inhibition of tube formation after 24 hrs by matrigel based inverted phase contrast microscopic analysis; type: functional, cell-based
EPC = assay: as §1; type: functional, cell-based
Neutrophil [2] = assay: Anti-inflammatory activity in fMLP/CB-stimulated human neutrophils assessed as reduction in elastase release at 30 ug/mL using MeO-Suc-Ala-Ala-Pro-Val-p-nitroanilide as substrate preincubated for 5 mins followed by cytochalasin B addition and subsequent fMLP-stimulation for 10 mins by spectrophotometric assay; type: functional, cell-based
[3] = Cytotoxicity against CD34-positive human EPC at 25 to 50 ug/mL after 24 hrs by LDH release assay; type: cell-based
Neutrophil [4] = assay: Anti-inflammatory activity in fMLP/CB-stimulated human neutrophils assessed as reduction in superoxide generation at 30 ug/mL preincubated for 5 mins followed by cytochalasin B addition for 3 mins and subsequent fMLP-stimulation for 10 mins by ferricytochrome c reduction based spectrophotometric assay; type: functional, cell-based

Structure (SMILES): CC[C@@H](C)[C@H]1C=C[C@H]2[C@H](O)[C@@H](CO)C[C@@H](C)[C@@H]2[C@@]1(C)C(=O)CCO
- Activity (HepG2): inactive
- Activity (A549): inactive
- Activity (Staphylococcus aureus): inactive
- Activity (MDA-MB-231): inactive
- IC50 [1]: 34.1 µg/mL (≈ 101 µM)
- inhibition (EPC): Dose-dependent effect
- Activity (Neutrophil [2]): inactive
- Activity [3]: Non-Toxic
- Activity (Neutrophil [4]): inactive
